Measurements taken from US20230085307A1, “PYRIDAZINONE COMPOUND AND HERBICIDE” (NISSAN CHEMICAL CORPORATION, priority 2019, published 2023).

How the values were obtained:
chickweed = assay: Test Example 5: herbicidal effect by foliage application, plastic box (Table 20, symbol P); assay type: in vivo, common chickweed (Stellaria media); conditions: amount of applied herbicide 320 g/ha; foliage application after 14-day growth; evaluated three weeks after application
Outline: (§1)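 Sow seeds spot-wise in sterilized diluvial soil; cover with ~1.5 cm soil. Grow 14 days in greenhouse, 25° C. to 30° C. Spray foliage with emulsion diluted to predetermined amount. Rate effect after 3 weeks.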

velvetleaf = assay: Test Example 5: herbicidal effect by foliage application, plastic box (Table 20, symbol M); assay type: in vivo, velvetleaf (Abutilon theophrasti); conditions: amount of applied herbicide 320 g/ha; foliage application after 14-day growth; evaluated three weeks after application
Outline: as §1

blackgrass = assay: Test Example 5: herbicidal effect by foliage application, plastic box (Table 20, symbol J); assay type: in vivo, blackgrass (Alopecurus myosuroides); conditions: amount of applied herbicide 320 g/ha; foliage application after 14-day growth; evaluated three weeks after application
Outline: as §1

green foxtail = assay: Test Example 5: herbicidal effect by foliage application, plastic box (Table 20, symbol G); assay type: in vivo, green foxtail (Setaria viridis); conditions: amount of applied herbicide 320 g/ha; foliage application after 14-day growth; evaluated three weeks after application
Outline: as §1

barnyard grass [1] = assay: Test Example 5: herbicidal effect by foliage application, plastic box (Table 20, symbol H); assay type: in vivo, barnyard grass (Echinochloa crus-galli); conditions: amount of applied herbicide 320 g/ha; foliage application after 14-day growth; evaluated three weeks after application
Outline: as §1

redroot pigweed = assay: Test Example 5: herbicidal effect by foliage application, plastic box (Table 20, symbol N); assay type: in vivo, redroot pigweed (Amaranthus retroflexus); conditions: amount of applied herbicide 320 g/ha; foliage application after 14-day growth; evaluated three weeks after application
Outline: as §1

southern crabgrass = assay: Test Example 5: herbicidal effect by foliage application, plastic box (Table 20, symbol F); assay type: in vivo, southern crabgrass (Digitaria ciliaris); conditions: amount of applied herbicide 320 g/ha; foliage application after 14-day growth; evaluated three weeks after application
Outline: as §1

Chinese sprangletop = assay: Test Example 3: herbicidal effect by foliage application, Wagner pot (Table 18, symbol D); assay type: in vivo, chinese sprangletop (Leptochloa chinensis); conditions: 320 g/ha
Outline: (§2)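 Plants were sown in alluvial soil held under 0.1–0.5 cm standing water and grown 14 days in a greenhouse at 25–30 °C. An emulsifiable formulation, water-diluted to the set dose, was then sprayed onto the foliage, and effects were scored three weeks later using previously defined criteria.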

false cleavers = assay: Test Example 5: herbicidal effect by foliage application, plastic box (Table 20, symbol Q); assay type: in vivo, false cleavers (Galium spurium); conditions: amount of applied herbicide 320 g/ha; foliage application after 14-day growth; evaluated three weeks after application
Outline: as §1

lambsquarters = assay: Test Example 5: herbicidal effect by foliage application, plastic box (Table 20, symbol O); assay type: in vivo, lambsquarters (Chenopodium album); conditions: amount of applied herbicide 320 g/ha; foliage application after 14-day growth; evaluated three weeks after application
Outline: as §1

Italian ryegrass = assay: Test Example 5: herbicidal effect by foliage application, plastic box (Table 20, symbol K); assay type: in vivo, Italian ryegrass (Lolium multiflorum); conditions: amount of applied herbicide 320 g/ha; foliage application after 14-day growth; evaluated three weeks after application
Outline: as §1

persian speedwell = assay: Test Example 5: herbicidal effect by foliage application, plastic box (Table 20, symbol R); assay type: in vivo, Persian speedwell (Veronica persica); conditions: amount of applied herbicide 320 g/ha; foliage application after 14-day growth; evaluated three weeks after application
Outline: as §1

barnyard grass [2] = assay: Test Example 3: herbicidal effect by foliage application, Wagner pot (Table 18, symbol H); assay type: in vivo, barnyard grass (Echinochloa crus-galli); conditions: 320 g/ha
Outline: as §2

windgrass = assay: Test Example 5: herbicidal effect by foliage application, plastic box (Table 20, symbol L); assay type: in vivo, windgrass (Apera spica-venti); conditions: amount of applied herbicide 320 g/ha; foliage application after 14-day growth; evaluated three weeks after application
Outline: as §1

rice flat sedge = assay: Test Example 3: herbicidal effect by foliage application, Wagner pot (Table 18, symbol E); assay type: in vivo, rice flat sedge (Cyperus iria); conditions: 320 g/ha
Outline: as §2

wild oat = assay: Test Example 5: herbicidal effect by foliage application, plastic box (Table 20, symbol I); assay type: in vivo, wild oat (Avena fatua); conditions: amount of applied herbicide 320 g/ha; foliage application after 14-day growth; evaluated three weeks after application
Outline: as §1

| SMILES | Herbicidal effect by foliage application, P: chickweed (chickweed) | Herbicidal effect by foliage application, M: velvetleaf (velvetleaf) | Herbicidal effect by foliage application, J: blackgrass (blackgrass) | Herbicidal effect by foliage application, G: green foxtail (green foxtail) | Herbicidal effect by foliage application, H: barnyard grass (barnyard grass [1]) | Herbicidal effect by foliage application, N: redroot pigweed (redroot pigweed) | Herbicidal effect by foliage application, F: southern crabgrass (southern crabgrass) | herbicidal effect on Chinese sprangletop (D) (Chinese sprangletop) | Herbicidal effect by foliage application, Q: false cleavers (false cleavers) | Herbicidal effect by foliage application, O: lambsquarters (lambsquarters) | Herbicidal effect by foliage application, K: Italian ryegrass (Italian ryegrass) | Herbicidal effect by foliage application, R: persian speedwell (persian speedwell) | herbicidal effect on barnyard grass (H) (barnyard grass [2]) | Herbicidal effect by foliage application, L: windgrass (windgrass) | herbicidal effect on rice flat sedge (E) (rice flat sedge) | Herbicidal effect by foliage application, I: wild oat (wild oat) |
| --- | --- | --- | --- | --- | --- | --- | --- | --- | --- | --- | --- | --- | --- | --- | --- | --- |
| CSc1ccccc1-c1sc2c(Cl)cccc2c1-c1c(O)c(C)nn(C)c1=O [4-086] | 5 (Herbicidal rate of 90% or more (almost completely withered)) | 3 (Herbicidal rate of 40% or more and less than 70%) | 0 (Herbicidal rate of 5% or less (almost no effect)) | 3 (Herbicidal rate of 40% or more and less than 70%) | 1 (Herbicidal rate of 5% or more and less than 20%) | 4 (Herbicidal rate of 70% or more and less than 90%) | 0 (Herbicidal rate of 5% or less (almost no effect)) | 3 (Herbicidal rate of 40% or more and less than 70%) | 1 (Herbicidal rate of 5% or more and less than 20%) | 3 (Herbicidal rate of 40% or more and less than 70%) | 0 (Herbicidal rate of 5% or less (almost no effect)) | 5 (Herbicidal rate of 90% or more (almost completely withered)) | 4 (Herbicidal rate of 70% or more and less than 90%) | 4 (Herbicidal rate of 70% or more and less than 90%) | 3 (Herbicidal rate of 40% or more and less than 70%) | 0 (Herbicidal rate of 5% or less (almost no effect)) |
| CCSc1ccccc1-c1sc2c(C)cccc2c1-c1c(O)c(C)nn(C)c1=O [4-120] | 5 (Herbicidal rate of 90% or more (almost completely withered)) | 0 (Herbicidal rate of 5% or less (almost no effect)) | 0 (Herbicidal rate of 5% or less (almost no effect)) | 0 (Herbicidal rate of 5% or less (almost no effect)) | 0 (Herbicidal rate of 5% or less (almost no effect)) | 0 (Herbicidal rate of 5% or less (almost no effect)) | 0 (Herbicidal rate of 5% or less (almost no effect)) | 3 (Herbicidal rate of 40% or more and less than 70%) | 0 (Herbicidal rate of 5% or less (almost no effect)) | 0 (Herbicidal rate of 5% or less (almost no effect)) | 0 (Herbicidal rate of 5% or less (almost no effect)) | 5 (Herbicidal rate of 90% or more (almost completely withered)) | 2 (Herbicidal rate of 20% or more and less than 40%) | 0 (Herbicidal rate of 5% or less (almost no effect)) | 2 (Herbicidal rate of 20% or more and less than 40%) | 0 (Herbicidal rate of 5% or less (almost no effect)) |
